# Source: the OPERA property sets (Mansouri et al. 2018)
compound,measurement,setting,value
CCC#CCC,solubility,25 °C,6.8 mM
CCCCOc1ccc(C(=O)OCCN(CC)CC)cc1,solubility,,0.13 mM
CC(C)C(=O)C(C)C,solubility,25 °C,49.9 mM
Cc1ccc2cc3ccccc3cc2c1,solubility,25 °C,0.000111 mM
CN(C)C(=O)OC1=CC(=O)CC(C)(C)C1,solubility,,142 mM
N#CCC(N)=O,solubility,20 °C,1550 mM
CCOC(=O)C(=O)C(=O)OCC,solubility,22 °C,3250 mM
CC(=O)Nc1ccc(OC(C)=O)cc1,solubility,25 °C,12.4 mM
C=CCC1(C(C)C)C(=O)NC(=O)NC1=O,solubility,25 °C,19.4 mM
CC(C)OC(=O)C(C)N(C(=O)c1ccccc1)c1ccc(F)c(Cl)c1 (configuration not stated),solubility,20 °C,0.0373 mM
O=C(O)c1ccc(Cl)cc1Cl,solubility,,2.5 mM
C=CC1CC=CCC1 (configuration not stated),solubility,25 °C,0.462 mM
O=C(O)[C@H]1CCCC[C@@H]1C(=O)O (relative stereo),solubility,20 °C,11.6 mM
CC(C)N(N=O)C(C)C,solubility,24 °C,99.9 mM
COc1cc(NS(=O)(=O)c2ccc(N)cc2)nc(C)n1,solubility,,2.86 mM
CCC1(C2=CCCCC2)C(=O)NC(=O)NC1=O,solubility,25 °C,6.77 mM
C1CCN2C[C@@H]3C[C@@H](CN4CCCC[C@@H]34)[C@H]2C1,solubility,22 °C,13 mM
CCCCC(C)CC (configuration not stated),solubility,25 °C,0.00693 mM
Clc1ccc(-c2cc(Cl)c(Cl)c(Cl)c2Cl)cc1Cl,solubility,20 °C,1.48e-05 mM
COC(=O)C(C)N(C(=O)c1ccco1)c1c(C)cccc1C (configuration not stated),solubility,20 °C,0.763 mM
O=C(O)c1ccccc1C(c1ccc(O)cc1)c1ccc(O)cc1,solubility,20 °C,0.546 mM
CCCOC=O,solubility,22 °C,250 mM
CCCCCO,solubility,25 °C,250 mM
Clc1cc2c(cc1Cl)Oc1c(Cl)c(Cl)c(Cl)c(Cl)c1O2,solubility,20 °C,1.13e-08 mM
CN(C)C(=O)Nc1ccc(Oc2ccc(Cl)cc2)cc1,solubility,20 °C,0.0127 mM
Fc1cccc(Br)c1,solubility,25 °C,2.16 mM
c1ccc2[nH]ccc2c1,solubility,25 °C,30.4 mM
Cc1cccc([N+](=O)[O-])c1,solubility,30 °C,3.65 mM
O=C(O)[C@@H](O)[C@H](O)[C@H](O)[C@@H](O)C(=O)O,solubility,22 °C,229 mM
Cc1cccc(Nc2ccccc2C(=O)O)c1C,solubility,30 °C,0.0829 mM
C=C(c1ccccc1)c1ccccc1,solubility,25 °C,0.0366 mM
C=C1c2cccc(O)c2C(=O)C2=C(O)[C@]3(O)C(=O)C(C(N)=O)=C(O)[C@@H](N(C)C)[C@@H]3[C@@H](O)[C@H]12,solubility,21 °C,17.1 mM
CCOP(=S)(OCC)O/N=C(\C#N)c1ccccc1,solubility,25 °C,0.0179 mM
Nc1ccc(-c2ccc(Cl)cc2)cc1,solubility,,0.023 mM
CCCC(C)(C)C,solubility,25 °C,0.0439 mM
c1ncc2nc[nH]c2n1,solubility,20 °C,4160 mM
CC(=O)c1ccc(O)cc1,solubility,22 °C,72.7 mM
CCC(C)(C)C,solubility,25 °C,0.214 mM
Clc1cccc(-c2ccccc2Cl)c1,solubility,20 °C,0.0026 mM
C=C(C)C1CC=C(C)C(=O)C1 (configuration not stated),solubility,23 °C,8.67 mM
C[C@@H]1CC[C@@]2(OC1)O[C@H]1C[C@H]3[C@@H]4CC=C5C[C@@H](O)CC[C@]5(C)[C@H]4CC[C@]3(C)[C@H]1[C@@H]2C,solubility,25 °C,4.82e-05 mM
CCCCCCCCCCCCCCCCCC,solubility,25 °C,2.36e-05 mM
CCCCCCCI,solubility,25 °C,0.0155 mM
Cc1cc(C)cc(O)c1,solubility,25 °C,39.9 mM
CCC(CC)CO,solubility,25 °C,39.1 mM
CCCCn1c(=O)c2c(ncn2C)n(C)c1=O,solubility,30 °C,23.7 mM
CCSCc1ccccc1OC(=O)NC,solubility,20 °C,8.08 mM
Clc1ccc(Cl)c(-c2cc(Cl)c(Cl)cc2Cl)c1,solubility,25 °C,4.72e-05 mM
c1ccc2c(c1)OCCOCCOc1ccccc1OCCOCCO2,solubility,25 °C,0.0203 mM
Cc1ccccc1C(=O)O,solubility,25 °C,8.67 mM
COP1(=S)OCc2ccccc2O1 (configuration not stated),solubility,30 °C,0.268 mM
CCOC(=O)c1c[nH]c(=S)[nH]c1=O,solubility,25 °C,7.97 mM
Nc1ccccc1C(=O)O,solubility,20 °C,25.5 mM
COC(=O)c1ccc(OC)cc1,solubility,20 °C,3.87 mM
CC(=O)C(C)C,solubility,25 °C,706 mM
Clc1ccc(-c2ccc(Cl)c(Cl)c2)cc1,solubility,20 °C,0.000279 mM
Clc1cc(Cl)c(-c2c(Cl)cc(Cl)cc2Cl)c(Cl)c1,solubility,25 °C,1.13e-06 mM
Oc1cccnc1,solubility,20 °C,350 mM
C=CC1CN2CCC1CC2C(=O)c1ccnc2ccc(OC)cc12 (configuration not stated),solubility,20 °C,0.0093 mM
COC1=CC(=O)C[C@@H](C)[C@]12Oc1c(Cl)c(OC)cc(OC)c1C2=O,solubility,25 °C,0.0245 mM
C[C@]12CC[C@H](O)CC1=CC[C@@H]1[C@@H]2CC[C@]2(C)C(=O)CC[C@@H]12,solubility,25 °C,0.129 mM
CCCCC(C)(C)CCC,solubility,20 °C,0.0155 mM
CNCCCN1c2ccccc2CCc2ccccc21,solubility,24 °C,0.22 mM
O=C(c1ccccc1)c1c(O)cc(O)cc1O,solubility,22 °C,13.5 mM
NCCCCCCCCCCC(=O)O,solubility,30 °C,4.97 mM
Clc1cc(-c2cc(Cl)c(Cl)c(Cl)c2Cl)c(Cl)c(Cl)c1Cl,solubility,25 °C,6.33e-07 mM
Clc1cccc2c1Oc1ccccc1O2,solubility,25 °C,0.00191 mM
CCOP(=S)(OCC)Oc1ccc(S(C)=O)cc1 (configuration not stated),solubility,20 °C,6.49 mM
Cc1ccnc(C)c1,solubility,25 °C,3020 mM
CN1CCCC(CN2c3ccccc3Sc3ccccc32)C1 (configuration not stated),solubility,24 °C,0.018 mM
O=C(O)c1ccc(O)c(C(=O)O)c1,solubility,24 °C,1.65 mM
C=CCCC,solubility,25 °C,2.11 mM
CCC(N)C(=O)O (configuration not stated),solubility,25 °C,2050 mM
CCCC(C)C(=O)Nc1ccc(C)c(Cl)c1 (configuration not stated),solubility,22 °C,0.0355 mM
O=C(O)c1cc(I)cc(I)c1O,solubility,25 °C,0.493 mM
C[C@]12CC[C@@H](O)C[C@@H]1CC[C@@H]1[C@@H]2CC[C@]2(C)C(=O)CC[C@@H]12,solubility,23 °C,0.0461 mM
O=C(O)c1cc(O)c(O)c(OC(=O)c2cc(O)c(O)c(O)c2)c1,solubility,25 °C,1.55 mM
